{"source": "patent US9468212B2", "about": "“Antifungal compositions” (DSM IP ASSETS B.V., priority 2013, dated 2016)", "key": {"[1]": {"system": "Botrytis cinerea", "test": "Treatment of sweet peppers: wounded, inoculated with Botrytis cinerea, wound treated with antifungal composition (Example 10)", "format": "in vivo", "conditions": "400 ppm natamycin, 600 ppm fenpiclonil or both, 20° C.", "procedure": "Ten fresh, organic sweet peppers were used per treatment. The peel of each sweet pepper was wounded once using a cork borer according to the method described by de Lapeyre de Bellaire and Dubois (1987). Subsequently, each wound was inoculated with 10 μl of a Botrytis cinerea suspension containing 1×10^5 of spores/ml. After incubation for 3 hours at 20° C., each wound and the skin area of 0.5 cm around the wound was treated with in total 75 μl of a freshly prepared aqueous antifungal composition comprising either 400 ppm natamycin (DSM Food Specialties, Delft, The Netherlands), 600 ppm fenpiclonil or both. Each antifungal composition also comprised 3.2% (w/w) beeswax, 0.8% (w/w) glycerol, 0.7% (w/w) polyoxyethylene sorbitan monostearate (Tween 60), 0.2% (w/w) polyoxyethylene sorbitan monooleate (Tween 80), 0.05% (w/w) methylhydroxyethyl-cellulose (MHEC), 0.03% (w/w) anti-foaming agent, 0.02% (w/w) xanthan gum, 0.02% (w/w) citric acid, 0.01% (w/w) lactic acid and 0.01% potassium sorbate. A composition without natamycin or fenpiclonil was used as control.\nThe treated sweet peppers were incubated in a closed box in the dark at 20° C. and assessed on mould growth during incubation. The antifungal activity (in %) of the individual and combined active ingredients was determined by calculating the reduction in mould growth observed on the sweet peppers treated with the antifungal composition in comparison to the mould growth on the sweet peppers treated with the control composition according to the Colby method (Colby, 1967) as described in Example 5."}, "[2]": {"system": "Penicillium italicum", "test": "Treatment of oranges: wounded, inoculated with Penicillium italicum, wound treated with antifungal composition (Examples 7-9)", "format": "in vivo", "conditions": "500 ppm natamycin, 400 ppm fenpiclonil or both, oranges, 20° C.", "procedure": "The expected antifungal activity (E in %) of the combined antifungal composition comprising both active ingredients was calculated according to the Colby equation (Colby, 1967): E=X+Y−[(X·Y)/100] wherein X and Y are the observed antifungal activities (in %) of the individual active ingredients X and Y, respectively.\nEight fresh, organic oranges were used per treatment. Each orange was soaked in a 180 ppm hypochlorite solution for 10 minutes, then rinsed thoroughly with fresh tap water and dried. The peel of each disinfected orange was wounded once using a cork borer according to the method described by de Lapeyre de Bellaire and Dubois (1987). Subsequently, each wound was inoculated with 10 μl of a Penicillium italicum suspension containing 5×10^5 of spores/ml. After incubation for 3 hours at 20° C., each wound and the orange peel area of 1 cm around the wound was treated with in total […] of a freshly prepared aqueous antifungal composition comprising either 500 ppm natamycin (DSM Food Specialties, Delft, The Netherlands), 300 ppm fludioxonil or both. Each antifungal composition also comprised 3.2% (w/w) beeswax, 0.8% (w/w) glycerol, 0.7% (w/w) polyoxyethylene sorbitan monostearate (Tween 60), 0.1% (w/w) polyoxyethylene sorbitan monooleate (Tween 80), 0.05% (w/w) methylhydroxyethyl-cellulose (MHEC), 0.03% (w/w) anti-foaming agent, 0.02% (w/w) xanthan gum, 0.02% (w/w) citric acid, 0.01% (w/w) lactic acid and 0.01% potassium sorbate. A composition without natamycin or fludioxonil was used as control.\nThe treated oranges were incubated in a closed box in the dark at 20° C. and assessed on mould growth during a 27-day incubation period.\n(§1) The experiment was conducted as described in Example 7, except for the fact that each wounded and inoculated orange was treated with 150 μl of a freshly prepared aqueous antifungal composition comprising either 250 ppm natamycin (DSM Food Specialties, Delft, The Netherlands), 100 ppm fludioxonil or both. During incubation, the treated oranges were assessed on mould growth according to the two methods described in Example 5.\nas §1, with “500” for “250”, “400” for “100”, “fenpiclonil” for “fludioxonil”, “a 23-day incubation period,” for “incubation,”"}}, "note": "“And” between values parts separate entries of the source, which are not always exact repeats. Equal values may be shown once.", "data": [{"smiles": "N#Cc1c[nH]cc1-c1cccc(Cl)c1Cl", "note": "[Fenpiclonil, fenpiclonil]", "values": [{"measurement": "Observed antifungal activity O (%)", "setting": "[1]; 47 days", "result": 0, "unit": "%"}, {"measurement": "Observed antifungal activity O (%)", "setting": "[1]; 48 days", "result": 0, "unit": "%"}, {"measurement": "Observed antifungal activity O (%)", "setting": "[1]; 49 days", "result": 0, "unit": "%"}, {"measurement": "Observed antifungal activity O (%)", "setting": "[1]; 50 days", "result": 0, "unit": "%"}, {"measurement": "Observed antifungal activity O (%)", "setting": "[2]; 22-23 days", "result": 0, "unit": "%"}, {"measurement": "Observed antifungal activity O (%)", "setting": "[2]; 12 days", "result": 78, "unit": "%"}, {"measurement": "Observed antifungal activity O (%)", "setting": "[2]; 13 days", "result": 70, "unit": "%"}, {"measurement": "Observed antifungal activity O (%)", "setting": "[2]; 14 days", "result": 66, "unit": "%"}, {"measurement": "Observed antifungal activity O (%)", "setting": "[2]; 15 days", "result": 59, "unit": "%"}, {"measurement": "Observed antifungal activity O (%)", "setting": "[2]; 16 days", "result": 47, "unit": "%"}, {"measurement": "Observed antifungal activity O (%)", "setting": "[2]; 18 days", "result": 28, "unit": "%"}, {"measurement": "Observed antifungal activity O (%)", "setting": "[2]; 19 days", "result": 17, "unit": "%"}, {"measurement": "Observed antifungal activity O (%)", "setting": "[2]; 20 days", "result": 6, "unit": "%"}, {"measurement": "Observed antifungal activity O (%)", "setting": "[2]; 21 days", "result": 3, "unit": "%"}, {"measurement": "Number of moulded oranges/total number of 8 oranges", "setting": "[2]; Day 14-15", "result": "6 and 6/8"}, {"measurement": "Number of moulded oranges/total number of 8 oranges", "setting": "[2]; Day 16", "result": "8 and 8/8"}, {"measurement": "Number of moulded oranges/total number of 8 oranges", "setting": "[2]; Day 18", "result": "8 and 8/8"}, {"measurement": "Number of moulded oranges/total number of 8 oranges", "setting": "[2]; Day 19-23", "result": "8 and 8/8"}]}]}
